How the values were obtained:
[1] = system: naive Th cells; assay: Induction from naive T cells to Tregs by CDK8/19 inhibitory drugs (CD25+ Foxp3+ cells, EC150); type: cell-based, mouse; settings: concentration giving 150% CD25+ Foxp3+ cells versus 0.1% DMSO, 44 hours, geometric average of three trials
Procedure: The naive T cells were generated by the following method. […] Naive Th cells were prepared from the cell suspension using Naive CD4^+ T cell Isolation Kit, mouse (manufactured by Miltenyi Biotec). […] Further, Anti-Biotin MicroBeads and CD44 MicroBeads were added, followed by incubation at 4° C. for 10 minutes and then a centrifugation operation (300xg, 10 minutes). After the removal of the supernatant, the cells were resuspended in MEM and applied to an LS column (manufactured by Miltenyi Biotech). The cells contained in the flow-through liquid were used in the subsequent experiments. The prepared naive Th cells (2×10^5 cells) were stimulated with an anti-CD3/CD28 antibody (Gibco Dynabeads Mouse T-Activator CD3/CD28; manufactured by Thermo Fisher Scientific) in the presence of various CDK8/19 inhibitory drugs (usage amount: from 1 nM to 10,000 nM [[μM]]) at 5% CO2 at 37° C. […] The stained cells were measured using Canto II (manufactured by BD) by a flow cytometry method, and a proportion of CD25^+ Foxp3^+ cells in CD4^+ viable cells was analyzed using FlowJo (manufactured by FlowJo).

[2] = system: mouse actively-sensitized antibody-induced nasal allergy model; assay: Actively-sensitized antibody-induced nasal allergy model, nasal rubbing; type: in vivo
Procedure: The mouse actively-sensitized antibody-induced nasal allergy model was generated by the following method. Seven-week-old BALB/c mice (manufactured by SLC, male) were initially sensitized by intraperitoneal administration of 200 μL of a mixed liquid of OVA (manufactured by Wako Pure Chemical Industries, Ltd.) (0.5 mg/mL) (100 μg/mouse), 5 mg/mL of aluminum hydroxide (ALUM; manufactured by Wako Pure Chemical Industries, Ltd.), and 1.5 μg/mL of pertussis toxin (manufactured by Wako Pure Chemical Industries, Ltd.). Next, 5 days after the initial sensitization, as additional sensitization, OVA (50 μg/mouse) was administered into the dorsal skin of the mice to perform systemic sensitization. After that, OVA (100 μg/mouse) was administered to the mice as nasal drops at a frequency of once a day as local sensitization for 8 days from day 18 after the initial sensitization to elicit a nasal allergy symptom due to active sensitization.
A 0.5% (w/v) methylcellulose solution serving as a vehicle was used for a vehicle control group, and dexamethasone (manufactured by Tokyo Chemical Industry Co., Ltd.) was used for a positive control.

[3] = system: OVA-induced asthma model; assay: OVA-induced asthma model, airway resistance after methacholine; type: in vivo, mouse; settings: 0.5 mg/kg oral once a day, 34 days, 25 mg/mL methacholine
[4] = molecular target: CDK8 (Homo sapiens, UniProt P49336); assay: CDK8 kinase activity measurement (QSS Assist CDK8/CycC_ELISA kit)
[5] = system: Th1-type asthma model; assay: Th1-type asthma model, airway resistance after methacholine; type: in vivo, mouse; settings: 0.5 mg/kg oral once a day, 17 days, 25 mg/mL methacholine
[6] = molecular target: CDK19 (Homo sapiens, UniProt Q9BWU1); assay: CDK19 kinase activity measurement (QSS Assist CDC2L6/CycC_ELISA kit)
[7] = system: CD4+ CD25− Foxp3− CD62L+ CD44− naive T cells; assay: In vitro Foxp3 induction in naive T cells (Foxp3-GFP, flow cytometry); type: cell-based, mouse; settings: hTGF-β1 2 ng/mL alone, anti-CD3/CD28, 72 hours
Procedure: The eFox mice were generated in accordance with a method described in Science. […] The prepared total lymphocytic cells were stained with an anti-CD4 antibody (RM-4.5; manufactured by BD), an anti-CD62L antibody (MEL-14; manufactured by BD), and an anti-CD44 antibody (IM7; manufactured by BD), and CD4^+ CD25^− Foxp3^− CD62L^+ CD44^− naive T cells were prepared using FACSAria™ II (manufactured by BD).
The cells after the treatment were stained with an anti-CD4 antibody (manufactured by BD), and a proportion of Foxp3-GFP-positive cells was analyzed by a flow cytometry method.

[8] = system: human effector memory CD4+ T cells (CD4+ CD25− CD45RA− Foxp3−); assay: Foxp3 induction in human effector memory CD4+ T cells; type: cell-based; settings: TGF-β 2 ng/mL alone, hIL-2, 72 hours
Procedure: Human peripheral blood mononuclear cells (manufactured by Wako Pure Chemical Industries, Ltd.) were stained using an anti-CD4 antibody (RPA-T4; manufactured by BD), an anti-CD25 antibody (M-A251; manufactured by BD), and an anti-CD45RA antibody (HI100; manufactured by BD), and human effector memory CD4^+ T cells (CD4^+ CD25^− CD45RA^− Foxp3^−) were prepared using FACSAria™ II (manufactured by BD).
(§1) The cells after the treatment were stained with an anti-CD4 antibody (manufactured by BD) and an anti-Foxp3 antibody (manufactured by eBioscience), and a proportion of Foxp3-positive cells was analyzed by a flow cytometry method.

[9] = system: human naive CD4+ T cells (CD4+ CD25− CD45RA+ Foxp3−); assay: Foxp3 induction in human naive CD4+ T cells with anti-TGF-β antibody or TGF-β; type: cell-based; settings: hTGF-β1 2 ng/mL alone, hIL-2, 72 hours
Procedure: Human naive CD4^+ T cells (CD4^+ CD25^− CD45RA^+ Foxp3^−) were prepared from human peripheral blood mononuclear cells (manufactured by Wako Pure Chemical Industries, Ltd.) in the same manner as in Example 17. As shown in the following items (i) to (iv), the prepared naive T cells (2×10^5 cells) were stimulated using 5 μL of an anti-CD3/CD28 antibody (Gibco Dynabeads Human T-Activator CD3/CD28; manufactured by Thermo Fisher Scientific) in the presence/absence of 2 ng/mL of hTGF-β1 (manufactured by R&D) or 10 μg/mL of an anti-TGF-β antibody (manufactured by R&D), hIL-2 (manufactured by Shionogi & Co., Ltd.) (50 U/ml), and 100 nM of Compound 1 Salt, and treated under a 5% CO2 atmosphere at 37° C. for 72 hours.
as §1

Sequence of CDK8 (P49336 whole entry): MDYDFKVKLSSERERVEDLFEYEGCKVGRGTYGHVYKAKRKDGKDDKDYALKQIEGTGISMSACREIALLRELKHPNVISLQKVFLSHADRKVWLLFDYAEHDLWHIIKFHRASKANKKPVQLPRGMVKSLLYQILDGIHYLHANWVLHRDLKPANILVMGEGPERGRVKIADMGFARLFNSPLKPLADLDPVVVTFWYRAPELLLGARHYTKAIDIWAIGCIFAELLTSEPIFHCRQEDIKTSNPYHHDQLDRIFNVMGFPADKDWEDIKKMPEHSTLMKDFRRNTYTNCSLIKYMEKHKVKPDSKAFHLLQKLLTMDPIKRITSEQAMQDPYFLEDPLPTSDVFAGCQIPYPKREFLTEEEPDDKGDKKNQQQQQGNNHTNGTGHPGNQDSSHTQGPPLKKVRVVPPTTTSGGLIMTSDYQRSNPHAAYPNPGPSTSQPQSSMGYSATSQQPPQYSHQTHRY
Sequence of CDK8 (P24863 whole entry partner): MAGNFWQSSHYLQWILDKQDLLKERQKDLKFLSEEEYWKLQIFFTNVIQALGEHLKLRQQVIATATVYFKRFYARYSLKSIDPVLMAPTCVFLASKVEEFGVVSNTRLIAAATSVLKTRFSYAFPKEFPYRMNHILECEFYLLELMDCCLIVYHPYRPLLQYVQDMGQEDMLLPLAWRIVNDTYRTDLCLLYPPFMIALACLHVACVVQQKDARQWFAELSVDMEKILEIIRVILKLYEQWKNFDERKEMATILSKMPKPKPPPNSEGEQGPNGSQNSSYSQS
Sequence of CDK19 (Q9BWU1 whole entry): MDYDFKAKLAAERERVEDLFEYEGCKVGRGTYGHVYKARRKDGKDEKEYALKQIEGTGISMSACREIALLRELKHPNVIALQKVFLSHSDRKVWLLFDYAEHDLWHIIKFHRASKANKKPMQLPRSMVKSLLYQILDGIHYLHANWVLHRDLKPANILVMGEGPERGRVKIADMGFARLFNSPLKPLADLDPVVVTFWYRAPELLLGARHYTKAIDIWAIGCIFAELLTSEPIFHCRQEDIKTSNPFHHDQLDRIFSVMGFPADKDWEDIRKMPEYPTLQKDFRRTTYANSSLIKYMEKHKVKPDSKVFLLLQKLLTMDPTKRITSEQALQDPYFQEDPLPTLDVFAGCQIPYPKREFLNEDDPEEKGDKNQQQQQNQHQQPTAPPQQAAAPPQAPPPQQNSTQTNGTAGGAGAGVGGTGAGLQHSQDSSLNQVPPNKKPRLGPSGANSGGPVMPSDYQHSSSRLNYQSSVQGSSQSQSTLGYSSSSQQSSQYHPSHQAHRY
Sequence of CDK19 (P24863 whole entry partner): as the sequence (P24863 whole entry partner) above

NC(=O)[C@H](Nc1cncc(-c2ccc(O)c(Cl)c2)c1)c1ccccc1 [(R)-2-[5-(3-Chloro-4-hydroxyphenyl)-pyridin-3-ylamino]-2-phenylacetamide]
EC150 [1]: 2.8 nM

COc1ccc(N2CCC(n3c(-c4nccnc4N)nc4c(C)nccc43)CC2)cc1 [Compound 2, 3-{1-[1-(4-methoxyphenyl)piperidin-4-yl]-4-methyl-1H-imidazo[4,5-c]pyridin-2-yl}pyrazin-2-amine]
number of times of nasal rubbing ([2]; 1.0 mg/kg oral daily): significantly suppressed | number of times of nasal rubbing ([2]; 3.0 mg/kg oral daily): significantly suppressed | airway reactivity (sRaw) [3]: suppressed an increase in airway reactivity | IC50 [4]: 0.7 nM | airway reactivity (sRaw) [5]: suppressed an increase in airway reactivity | EC150 [1]: 10.2 nM | IC50 [6]: 1.9 nM

TGF-β: hTGF-β1 (manufactured by R&D), used as control and in combination
proportion of Foxp3-GFP-positive cells [7]: 44.3% | proportion of Foxp3-positive cells [8]: 28.5% | proportion of Foxp3-positive cells [9]: 26.9%

N#Cc1ccc2ncnc(NCCc3ccccc3)c2c1 [Senexin A]
EC150 [1]: 192.2 nM
